Reference: patent publication US9611286B2, “Ruthenium carbon monoxide releasing molecules and uses thereof” (Alfama, Inc., priority 2011, dated 2017)
Entries after “also recorded” stand apart in the source; their conditions may differ.

Columns and labels:
[1] = Quantification of Ru in tissues (bio-distribution); details: liver, kidney, spleen, lung and brain
Description: Tricarbonyldichloro(methylthiogalactopyranoside) Ru(II) [Ru(CO)3Cl2(Gal-S-Me)], also referred to herein as Compound 1, was prepared by reacting CORM-2 with methylthiogalactopyranoside (Gal-S-Me) as described herein (see FIG. 2a and Materials and Methods section). The bio-distribution of Compound 1 in tissues was assessed by quantifying the levels of Ru and CO in the host by the method of Vreman et al., Anal Biochem (2005) 341:280-9. Liver, kidney, spleen, lung and brain tissues of non-infected mice (NI) were analyzed one hour after administration of Compound 1 and the control molecule, Compound 2 (FIG. 2b). […] The spleen is an organ that plays a crucial role in erythrophagocytosis, process important for red blood cell turnover, and recycling of iron. Erythrocytes are hydrolyzed by splenic macrophages, where the degradation of hemoglobin occurs, haem is release, and is catabolized by heme oxygenase-1 into biliverdin, carbon monoxide and ferrous iron (Fe^2+).
The tissue samples were weighed and dried at 80° C. overnight followed by 2 or more hours at 120° C. […] The Ru content was analyzed by an inductively coupled plasma-atomic emission spectrometer (ICP-AES) (model Ultima-Horiba Jobin Yvon, Longjumeau, France) using an external Ru standard method.

[2] = Lung histology (hematoxylin and eosin) in M-AALI; format: in vivo; details: infected DBA/2 mice
Description: For evaluation of histological features, mice were deeply anesthetized until cessation of breathing when infected control mice presented signs of ECM or ALI. The livers, lungs, and brains were removed and fixed in 10% buffered formalin for 24-72 h. Four-micron sections were cut from paraffin-embedded tissues and stained with hematoxylin and eosin according to standard procedures. Histological analyses were performed on a Leica microscope DM 2500 (Leica Microsystems).

P. falciparum 3D7 = assay: In vitro replication of P. falciparum 3D7; format: cell-based, Plasmodium falciparum; details: 48 h
Description: The data led the inventors to wonder whether Compound 1 could have a direct anti-parasitic effect on P. berghei ANKA and P. falciparum parasites. To this end, the effect of Compound 1 and the anti-malarial chloroquine (CQ) was monitored on the in vitro replication of P. falciparum 3D7 isolate and P. berghei ANKA for 48 h and 24 h, respectively.

Hen Egg White Lysozyme C = target: T1, Hen Egg White Lysozyme C (Gallus gallus, UniProt P00698); assay: Hen egg white lysozyme (HEWL) assay, reactivity with proteins by LC-MS; format: binding; details: 10 equiv in H2O, room temperature, 10 minutes and 1 hour
T1 construct: one corresponding to the mass of native lysozyme (14305=calculated mass); from tissue; host or cells: hen egg white
T1 sequence (P00698 19-147): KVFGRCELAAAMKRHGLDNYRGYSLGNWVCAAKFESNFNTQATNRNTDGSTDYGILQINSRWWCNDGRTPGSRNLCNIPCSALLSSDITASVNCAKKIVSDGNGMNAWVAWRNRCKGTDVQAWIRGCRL
Text: The hen egg white lysozyme (HEWL) assay was used to assess the reactivity of Compound 1 in the presence of proteins (see, e.g., Santos-Silva, T. et al. J Am Chem Soc (2011) 133, 1192-1195). This paper describes the interactions of CORM-3 with plasma proteins. CORM-3 reacts rapidily with proteins, losing chloride ion, glycinate, and one CO ligand. […] It was observed that CORM-3 reacts faster and has a much weaker efficacy than Compound 1 in this ECM treatment.
Liquid chromatography-mass spectrometry (LC-MS) was performed on a Micromass Quattro API instrument (ESI-TOF-MS) coupled to a Waters Alliance 2795 HPLC using a MassPREP On-Line Desalting Cartridge. […]
Hen Egg White Lysozyme C (PDB code 3b61; UniProtKB/Swiss-Prot code P00698). […] Quantitative determination of lysozyme-ligand binding in the solution and gas phases by electrospray ionisation mass spectrometry follows Veros et al., Rapid Commun. […] A 50 μL aliquot was analyzed by LC-MS (calculated average isotopic mass of the egg white lysozyme=14305.1).
Santos-Silva and co-workers previously describe CORM-3's reactivity towards proteins and formation of a Ru(II) dicarbonyl-lysozyme complex (see, e.g., Santos-Silva et al., J. Am. Chem. Soc. (2011) 133:1192-1195). […] 50 μL aliquots were collected and analyzed by LC-MS over the reaction time (10 minutes and 1 hour). […]

SMILES: C[SH]([C@@H]1OC(CO)[C@H](O)[C@H](O)C1O)[Ru]([Cl])([Cl])([CH]=O)([CH]=O)[CH]=O (stereo partly shown) [Compound 1, Tricarbonyldichloro(methylthiogalactopyranoside) Ru(II)]
- Ru distribution in organs [1]: marked affinity for the liver; also recorded: No signs of ruthenium are found in the brain
- vascular congestion with pRBCs in lung tissue [2]: major differences in the vascular congestion with pRBCs
- inhibition of in vitro growth (P. falciparum 3D7): does not inhibit in vitro growth
- reactivity with HEWL (adduct formation) (Hen Egg White Lysozyme C): forms protein-Ru^II(CO)2 adducts but reacts slower than CORM-3
